Source: ChEMBL document CHEMBL1131878, “Synthesis and biological evaluation of 3-heteroaryloxy-4-phenyl-2(5H)-furanones as selective COX-2 inhibitors” (Bioorg Med Chem Lett, 1999)

Tests used:
[1] = target: Prostaglandin G/H synthase 1 (Homo sapiens, UniProt P23219); format: microsomes, U-937, Microsome
Description: Inhibition of COX-1 in U-937 (human lymphoma) cell microsomes.

Rattus norvegicus [2] = experiment: Potency in rat paw edema assay; format: functional
[3] = Maximum concentration for the bioavailability at a dose of 20 mg/kg administered orally; format: ADME, organism-based; design: dose 20 mg/kg, route oral; conditions: in vivo, po
[4] = Slow clearance (CL) was determined; format: ADME, organism-based; conditions: in vivo
Rattus norvegicus [5] = organism: Rattus norvegicus; experiment: Potency by rat adjuvant arthritis assay; format: functional
Rattus norvegicus [6] = organism: Rattus norvegicus; experiment: Potency by rat hyperalgesia assay; format: functional
Rattus norvegicus [7] = organism: Rattus norvegicus; experiment: Potency by rat pyrexia assay; format: functional

Prostaglandin G/H synthase 1, sequence (P23219 whole entry): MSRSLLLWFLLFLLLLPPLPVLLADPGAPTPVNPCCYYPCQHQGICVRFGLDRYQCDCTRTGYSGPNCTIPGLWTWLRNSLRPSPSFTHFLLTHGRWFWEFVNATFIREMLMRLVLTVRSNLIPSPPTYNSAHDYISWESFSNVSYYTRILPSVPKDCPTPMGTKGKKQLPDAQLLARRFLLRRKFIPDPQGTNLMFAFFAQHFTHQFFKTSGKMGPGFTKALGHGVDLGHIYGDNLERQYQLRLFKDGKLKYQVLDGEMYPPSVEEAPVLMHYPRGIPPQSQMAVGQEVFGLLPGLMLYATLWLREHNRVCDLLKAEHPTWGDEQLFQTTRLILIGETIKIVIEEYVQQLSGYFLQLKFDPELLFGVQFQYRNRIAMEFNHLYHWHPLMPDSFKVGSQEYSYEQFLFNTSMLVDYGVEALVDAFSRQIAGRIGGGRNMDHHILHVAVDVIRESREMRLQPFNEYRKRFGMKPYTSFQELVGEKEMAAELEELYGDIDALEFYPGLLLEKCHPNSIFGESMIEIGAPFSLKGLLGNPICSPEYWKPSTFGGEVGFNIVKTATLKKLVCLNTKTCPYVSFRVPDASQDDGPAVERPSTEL

With CC1(C)OC(=O)C(Oc2ncc(Cl)cc2Cl)=C1c1ccc(S(C)(=O)=O)cc1 the IC50 [1] was 0.3 µM.
With CC1(C)OC(=O)C(Oc2ncccn2)=C1c1ccc(S(C)(=O)=O)cc1 the IC50 [1] was > 10 µM.
In the case of CC1(C)OC(=O)C(Oc2ncnc3ccccc23)=C1c1ccc(S(C)(=O)=O)cc1, the IC50 [1] is reported as > 10 µM.
CC1(C)OC(=O)C(Oc2ncccc2Cl)=C1c1ccc(S(C)(=O)=O)cc1 gave an IC50 [1] of 1 µM.
With CC1(C)OC(=O)C(Oc2ccc(F)cn2)=C1c1ccc(S(C)(=O)=O)cc1 the IC50 [1] was 4.6 µM.
For CC1(C)OC(=O)C(Oc2ccncc2)=C1c1ccc(S(C)(=O)=O)cc1, the IC50 [1] was > 100 µM.
With CC1(C)OC(=O)C(Oc2cnccn2)=C1c1ccc(S(C)(=O)=O)cc1 the IC50 [1] was > 10 µM.
For CC1(C)OC(=O)C(Oc2cccc(Cl)n2)=C1c1ccc(S(C)(=O)=O)cc1, the IC50 [1] was > 10 µM.
CC1(C)OC(=O)C(Oc2cccc3cnccc23)=C1c1ccc(S(C)(=O)=O)cc1 showed an IC50 [1] of 3 µM.
With CC1(C)OC(=O)C(Oc2ccc3sccc3c2)=C1c1ccc(S(C)(=O)=O)cc1 the IC50 [1] was < 0.3 µM.
With CC1(C)OC(=O)C(Oc2ccccn2)=C1c1ccc(S(C)(=O)=O)cc1 the IC50 [1] was > 10 µM and the ED50 (Rattus norvegicus [2]) was > 10 mg/kg.
With CC1(C)OC(=O)C(Oc2cccnc2)=C1c1ccc(S(C)(=O)=O)cc1 the IC50 [1] was > 30 µM.
With CC1(C)OC(=O)C(Oc2ccc3[nH]ccc3c2)=C1c1ccc(S(C)(=O)=O)cc1 the IC50 [1] was 1 µM.
With CC1(C)OC(=O)C(Oc2ccc3ccccc3n2)=C1c1ccc(S(C)(=O)=O)cc1 the IC50 [1] was 3 µM.
CC1(C)OC(=O)C(Oc2ccc(C3CC3)cn2)=C1c1ccc(S(C)(=O)=O)cc1 showed an IC50 [1] of 3 µM.
CC1(C)OC(=O)C(Oc2ccc(Cl)cn2)=C1c1ccc(S(C)(=O)=O)cc1 gave a Cmax [3] of 16 µM, a CL [4] of 4.8 and an ED50 (Rattus norvegicus [2]) of 0.75 mg/kg.
Compound CS(=O)(=O)c1ccc(C2=C(c3ccccc3)C(=O)OC2)cc1 [ROFECOXIB] has an ED50 (Rattus norvegicus [2]) of 1.5 mg/kg.
Work on Cc1ccc(OC2=C(c3ccc(S(C)(=O)=O)cc3)C(C)(C)OC2=O)nc1 yielded an IC50 [1] of 3 µM.
CC1(C)OC(=O)C(Oc2ccc(Br)cn2)=C1c1ccc(S(C)(=O)=O)cc1 showed an IC50 [1] of 5.6 µM, an ED50 (Rattus norvegicus [5]) of 0.2 mg/kg and an ED50 (Rattus norvegicus [6]) of 0.6 mg/kg. For the same compound, the ED50 (Rattus norvegicus [2]) was 0.86 mg/kg and the ED50 (Rattus norvegicus [7]) was 0.3 mg/kg.
